Legend:
human TLR7 = biological target: T1, human TLR7 (Homo sapiens, UniProt Q9NYK1); assay: TLR ligand screening: NF-κB activation (SEAP reporter) in HEK293 cells expressing TLR7; type: cell-based; settings: one concentration: NTR001 10 uM, Inosine 100 uM; FIG. 2
T1 construct: expressed in transfected cells; host or cells: HEK293
T1 sequence (Q9NYK1 27-1049): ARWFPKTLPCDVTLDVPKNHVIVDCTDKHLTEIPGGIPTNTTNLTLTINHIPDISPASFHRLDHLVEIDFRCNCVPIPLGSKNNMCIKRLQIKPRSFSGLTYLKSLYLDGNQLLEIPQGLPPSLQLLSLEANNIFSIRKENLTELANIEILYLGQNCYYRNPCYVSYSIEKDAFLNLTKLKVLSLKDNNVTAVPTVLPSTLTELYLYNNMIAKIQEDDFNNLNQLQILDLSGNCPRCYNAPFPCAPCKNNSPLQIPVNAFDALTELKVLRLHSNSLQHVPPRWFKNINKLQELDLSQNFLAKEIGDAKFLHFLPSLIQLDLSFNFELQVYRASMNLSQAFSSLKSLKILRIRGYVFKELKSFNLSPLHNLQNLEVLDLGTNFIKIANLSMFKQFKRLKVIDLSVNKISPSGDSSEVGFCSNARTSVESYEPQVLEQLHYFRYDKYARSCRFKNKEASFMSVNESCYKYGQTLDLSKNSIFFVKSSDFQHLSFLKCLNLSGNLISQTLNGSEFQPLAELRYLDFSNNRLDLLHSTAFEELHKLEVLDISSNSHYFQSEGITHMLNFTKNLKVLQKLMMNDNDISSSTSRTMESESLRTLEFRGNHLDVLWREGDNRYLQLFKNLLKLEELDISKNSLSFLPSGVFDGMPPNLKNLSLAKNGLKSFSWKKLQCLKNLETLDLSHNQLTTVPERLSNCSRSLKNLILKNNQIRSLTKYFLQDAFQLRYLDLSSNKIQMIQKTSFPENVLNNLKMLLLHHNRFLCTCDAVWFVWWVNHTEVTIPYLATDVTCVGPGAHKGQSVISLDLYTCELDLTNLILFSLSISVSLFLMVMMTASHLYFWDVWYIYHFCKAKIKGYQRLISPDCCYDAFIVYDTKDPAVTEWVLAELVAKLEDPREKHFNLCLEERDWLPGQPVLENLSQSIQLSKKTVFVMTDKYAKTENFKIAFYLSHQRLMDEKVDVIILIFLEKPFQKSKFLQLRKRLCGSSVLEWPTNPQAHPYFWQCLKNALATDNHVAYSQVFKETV
Protocol: (§1) Method: TLR stimulation is tested by assessing NF-κB activation in HEK293 cells expressing a given TLR. The Secreted Embryonic Alkaline Phosphatase (SEAP) reporter is under the control of a promoter inducible by the transcription factor NF-κB. This reporter gene allows the monitoring of signaling through the TLR, based on the activation of NF-κB. The compounds are evaluated at one concentration and compared to control ligands. This step is performed in triplicate.

human TLR4 = biological target: T2, human TLR4 (Homo sapiens, UniProt O00206+Q9Y6Y9); assay: TLR ligand screening: NF-κB activation (SEAP reporter) in HEK293 cells expressing TLR4; type: cell-based; settings: one concentration: Guanosine 100 uM, NTR001 10 uM, Inosine 100 uM; FIG. 2
T2 construct: expressed in transfected cells; host or cells: HEK293
Protocol: as §1

human TLR8 = biological target: T3, human TLR8 (Homo sapiens, UniProt Q9NR97); assay: TLR ligand screening: NF-κB activation (SEAP reporter) in HEK293 cells expressing TLR8; type: cell-based; settings: one concentration: NTR001 10 uM, Inosine 100 uM; FIG. 2
T3 construct: expressed in transfected cells; host or cells: HEK293
T3 sequence (Q9NR97 27-1041): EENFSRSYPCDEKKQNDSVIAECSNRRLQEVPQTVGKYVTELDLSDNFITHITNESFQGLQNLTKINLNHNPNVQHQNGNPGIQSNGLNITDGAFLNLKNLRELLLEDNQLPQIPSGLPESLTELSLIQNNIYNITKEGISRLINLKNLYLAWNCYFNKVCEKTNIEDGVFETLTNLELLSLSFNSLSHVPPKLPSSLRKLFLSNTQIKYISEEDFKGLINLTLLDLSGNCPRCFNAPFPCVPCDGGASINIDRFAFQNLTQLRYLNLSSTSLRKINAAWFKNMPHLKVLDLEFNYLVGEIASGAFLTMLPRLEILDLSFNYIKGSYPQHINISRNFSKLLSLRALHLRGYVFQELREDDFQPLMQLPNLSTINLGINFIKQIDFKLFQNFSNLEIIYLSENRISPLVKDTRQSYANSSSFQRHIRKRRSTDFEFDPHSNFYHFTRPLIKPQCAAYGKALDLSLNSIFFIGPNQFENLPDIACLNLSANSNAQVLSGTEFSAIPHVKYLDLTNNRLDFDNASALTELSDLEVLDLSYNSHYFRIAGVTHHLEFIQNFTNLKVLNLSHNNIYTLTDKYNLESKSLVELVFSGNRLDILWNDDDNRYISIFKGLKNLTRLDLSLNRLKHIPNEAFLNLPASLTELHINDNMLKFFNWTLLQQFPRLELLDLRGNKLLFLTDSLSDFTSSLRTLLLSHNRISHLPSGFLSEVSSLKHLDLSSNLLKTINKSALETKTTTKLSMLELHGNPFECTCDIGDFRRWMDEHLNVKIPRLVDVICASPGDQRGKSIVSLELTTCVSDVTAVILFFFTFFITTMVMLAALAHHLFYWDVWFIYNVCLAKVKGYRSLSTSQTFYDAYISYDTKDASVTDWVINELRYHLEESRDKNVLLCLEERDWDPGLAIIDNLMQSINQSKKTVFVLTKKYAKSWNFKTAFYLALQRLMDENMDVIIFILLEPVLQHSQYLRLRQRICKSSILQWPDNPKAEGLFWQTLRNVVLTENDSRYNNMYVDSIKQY
Protocol: as §1

B16 tumors = assay: Syngeneic mouse melanoma model; type: in vivo, C57BL/6 mice
Protocol: Method: Cancer cells were injected subcutaneously in right flank of each mouse, 1×10^4 cells in 0.1 ml PBS with 20% Matrigel. Treatment with the NTR001 was initiated on day 6 after injection of tumor cells. Tumor volume and survival were recorded every 3-4 days.

[1] = tested on: L. monocytogenes (ATCC Strain35152, hemolytic substrain); assay: Mouse model of L. monocytogenes infection; settings: Balb/c mice infected i.v. with 1×10^6 CFU; 30 mg/kg PO or IP, 2 mg/kg drinking water; FIGS. 7 and 9
[2] = tested on: immune response to tetanus toxoid vaccine; assay: PNPi as adjuvant in tetanus toxoid vaccine efficacy study (mouse); type: in vivo; settings: mice, p.o., ELISA

T2 sequence (O00206 24-839): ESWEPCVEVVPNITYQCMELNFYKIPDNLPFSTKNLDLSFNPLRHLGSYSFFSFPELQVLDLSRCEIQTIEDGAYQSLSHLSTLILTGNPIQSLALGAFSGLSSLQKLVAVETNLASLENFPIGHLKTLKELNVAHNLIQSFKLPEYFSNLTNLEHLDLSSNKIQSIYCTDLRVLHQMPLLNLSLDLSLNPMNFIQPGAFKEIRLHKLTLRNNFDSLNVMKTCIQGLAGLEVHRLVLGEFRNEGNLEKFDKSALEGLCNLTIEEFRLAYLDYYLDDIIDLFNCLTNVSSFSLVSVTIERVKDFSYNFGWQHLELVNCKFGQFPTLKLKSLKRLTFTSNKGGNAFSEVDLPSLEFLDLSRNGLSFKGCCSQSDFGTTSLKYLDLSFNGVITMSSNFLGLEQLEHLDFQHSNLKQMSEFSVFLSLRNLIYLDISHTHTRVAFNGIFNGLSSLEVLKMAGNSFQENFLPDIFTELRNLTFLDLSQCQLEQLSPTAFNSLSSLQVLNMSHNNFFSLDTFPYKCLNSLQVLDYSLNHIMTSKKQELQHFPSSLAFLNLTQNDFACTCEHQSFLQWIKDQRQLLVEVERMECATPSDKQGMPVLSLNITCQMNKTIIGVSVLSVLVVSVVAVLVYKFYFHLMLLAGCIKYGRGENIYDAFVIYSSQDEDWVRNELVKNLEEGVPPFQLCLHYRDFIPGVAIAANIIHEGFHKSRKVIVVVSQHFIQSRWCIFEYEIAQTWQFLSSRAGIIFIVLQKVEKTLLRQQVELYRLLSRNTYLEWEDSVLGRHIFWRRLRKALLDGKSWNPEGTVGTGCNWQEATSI
T2 sequence (Q9Y6Y9 17-160 limits assumed): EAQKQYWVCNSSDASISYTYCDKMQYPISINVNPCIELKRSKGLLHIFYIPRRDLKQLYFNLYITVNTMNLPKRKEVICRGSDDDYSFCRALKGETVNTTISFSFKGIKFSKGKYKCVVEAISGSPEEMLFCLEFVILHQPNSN

Row | SMILES | stimulatory effect on human TLR7 (human TLR7) | stimulatory effect on human TLR4 (human TLR4) | stimulatory effect on human TLR8 (human TLR8) | tumor volume (B16 tumors; B16 tumors in C57BL/6 mice, treatment from day 6, FIG. 5) | survival (B16 tumors; NTR001 as single agent (30 mg/kg PO week on/off; 5 mg/kg drinking water 28 days), FIG. 6) | weight loss [1] | serum tetanus toxoid antibody titers compared to the vehicle treated group ([2]; 30 mg/kg (6 days of treatment) and 60 mg/kg (3 days of treatment), day 38, FIG. 3) | serum interferon-g compared to the vehicle treated group ([2]; high dose group 60 mg/kg, day 30, FIG. 4)
1 | OC[C@H]1O[C@@H](n2cnc3c(O)ncnc32)[C@H](O)[C@@H]1O [Inosine] | do not exhibit a stimulatory effect | do not exhibit a stimulatory effect | do not exhibit a stimulatory effect | – | – | – | – | –
2 | O=c1[nH]cnc2c([C@@H]3N[C@H](CO)[C@@H](O)[C@H]3O)c[nH]c12 [NTR001, 7-[(2S,3S,4R,5R)-3,4-dihydroxy-5-(hydroxymethyl)-2-pyrrolidinyl]-1,5-dihydro-4H-pyrrolo [3,2-d]pyrimidin-4-one] | do not exhibit a stimulatory effect | do not exhibit a stimulatory effect | do not exhibit a stimulatory effect | significant decrease | 0-20% | significant decrease in weight loss | significantly elevated | elevated

Source: patent US9452217B2, “Methods for potentiating immune response for the treatment of infectious diseases and cancer” (Nitor Therapeutics, priority 2013, dated 2016)
